From patent publication US8329691B2, “Amide compounds and use of the same” (Takeda Pharmaceutical Company Limited, priority 2007, dated 2012)
Structures can show the parent of a compound that is named as a salt.

molecular target: T1, human renin (Homo sapiens, UniProt P00797); assay: Measurement of renin inhibition value - B (angiotensinogen substrate, angiotensin I EIA); format: biochemical; details: 1 μM test compound, pH 7.4, 37° C., 30 min
T1 construct: taking the active type (67-406); made in house
T1 sequence (P00797 67-406): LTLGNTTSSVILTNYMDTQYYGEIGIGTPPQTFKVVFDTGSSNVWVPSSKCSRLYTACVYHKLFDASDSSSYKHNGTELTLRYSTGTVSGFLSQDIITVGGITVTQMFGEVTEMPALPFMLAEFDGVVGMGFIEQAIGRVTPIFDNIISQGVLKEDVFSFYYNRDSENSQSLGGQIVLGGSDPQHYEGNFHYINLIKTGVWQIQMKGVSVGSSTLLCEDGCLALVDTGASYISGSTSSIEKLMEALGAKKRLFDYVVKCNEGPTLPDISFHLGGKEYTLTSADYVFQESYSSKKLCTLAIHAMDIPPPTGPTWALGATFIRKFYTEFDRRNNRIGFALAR
Procedure: After the reaction, 0.4 ml of immobilized trypsin inhibitor (Pierce Biotechnology, Inc.) was added to remove the trypsin used in the activation by adsorption. The reaction liquid containing the active type renin was concentrated using Vivaspin 20 (molecular weight cut off 10,000, Vivascience, Inc.), and was diluted with 20 mM Tris-hydrochloric acid (pH 8.0).
(5) Purification of Angiotensinogen
After transfection of the plasmid DNA, the cells were subjected to shaking culture under the conditions of 37° C., 8% CO2 and 125 rpm for 3 days. A 600-ml aliquot of the culture medium was centrifuged at 2,000 rpm for 10 min to recover the culture supernatant containing angiotensinogen. To the culture supernatant was added ammonium sulfate (30% saturated concentration), and the mixture was thoroughly stirred and centrifuged at 8,000 rpm for 20 min. The obtained supernatant was added to TOYO Pearl butyl 650M (2×5 cm, Tosoh Corporation) equilibrated with 50 mM tris-hydrochloric acid (pH 8.0) containing 30% saturated ammonium sulfate, at a flow rate of 25 ml/min to allow adsorption. After washing with equilibration buffer, angiotensinogen was eluted by linear concentration gradient from the buffer used for equilibration to 20 mM tris-hydrochloric acid (pH 8.0). The eluate containing angiotensinogen was applied to repeated concentration and dilution using Vivaspin 20 (molecular weight cut off 10,000, Vivascience, Inc.), and the buffer was changed to 20 mM tris-hydrochloric acid (pH 8.0). The eluate was fed to a 6-ml RESOURCE Q column (Amersham Biosciences, Inc.) equilibrated with 20 mM Tris-hydrochloric acid (pH 8.0) containing 50 mM sodium chloride at a flow rate of 6 ml/min to adsorb the angiotensinogen. After washing the column with the buffer solution used in the equilibration, elution was carried out by means of a linear concentration gradient of sodium chloride from 50 mM to 400 mM. The fractions containing angiotensinogen were collected and concentrated using Vivaspin 20 (molecular weight cut off 10,000, Vivascience, Inc.) to a volume of about 2 ml.
(7) Measurement of Renin Inhibition Value—B
As a substrate for renin activity measurement, the angiotensinogen mentioned in (5) above was used. 1 μeach of the test compound (containing 100% DMSO) was added to each well of a 384-well plate (ABgene). Renin was diluted with a buffer solution for reaction (20 mM sodium phosphate (pH 7.4)) to a concentration of 57 pM, and 14 μl each of the dilution was added to each well. The dilution was left to stand at 37° C. for 10 min, and then 5 μl of each of a 6 μM solution of substrate angiotensinogen was added to each well to initiate the reaction. […] The amount of angiotensin I produced by an enzyme reaction was quantified by Enzyme immunoassay (EIA) described below.
Anti-angiotensin I antibody (Peninsula Laboratories Inc.) diluted 5,000-fold with PBS was added to each well of a 384 well black plate (Nalge Nunc International Co., Ltd.) by 25 μl, and left standing overnight at 4° C. to immobilize the antibody in the plate. The antibody solution was removed, PBS solution (100 μl) containing 1% BSA was added to each well, and the mixture was left standing at room temperature for 2 hr for blocking. The blocking solution was removed, and each well was washed 5 times with 100 μl of 0.05% Tween20-PBS. […] Then, a biotinated angiotensin I solution (AnaSpec, 15 μl) prepared to 1.6 nM with a buffer [20 mM tris-hydrochloric acid (pH 7.4), 150 mM sodium chloride, 0.01% BSA, 0.05% Tween20] was added to each well, mixed with a plate mixer and left standing at room temperature for 1 hr.

Row | SMILES | human renin inhibitory activity: inhibitory activity (%) at 1 μM
1 | COCCCNc1nc(C(C)(C)C)ncc1C(=O)N(CC(C)C)[C@@H]1CNC[C@H](C(=O)N2CCOCC2)C1.O=C(O)/C=C/C(=O)O [Example 207, 2-tert-butyl-4-[(3-methoxypropyl)amino]-N-(2-methylpropyl)-N-[(3S,5R)-5-(morpholin-4-ylcarbonyl)piperidin-3-yl]pyrimidine-5-carboxamide monofumarate] | 98%

same assay, conditions: 1 μM test compound, pH 7.4, 37° C., 30 min, read-out: human renin inhibitory activity: inhibitory activity (%) at 1 μM

Row | SMILES | inhibition at 1 µM
2 | CC(C)CN(C(=O)c1cnc(C(C)(C)C)nc1NCc1ccco1)[C@@H]1CNC[C@H](C(N)=O)C1 (relative stereo) [Example 93, N-[(3R*,5S*)-5-(aminocarbonyl)piperidin-3-yl]-2-tert-butyl-4-[(2-furylmethyl)amino]-N-isobutylpyrimidine-5-carboxamide dihydrochloride] | 97%
3 | COC(=O)[C@H]1CNC[C@@H](N(CC(C)C)C(=O)c2cnc(C(C)(C)C)nc2NCc2ccccc2)C1 (relative stereo) [Example 99, methyl (3R*,5S*)-5-[{[4-(benzylamino)-2-tert-butylpyrimidin-5-yl]carbonyl}(isobutyl)amino]piperidine-3-carboxylate] | 97%
4 | CC(C)CN(C(=O)c1cnc(C(C)(C)C)nc1NCc1ccco1)[C@@H]1CNC[C@H](C(C)(C)O)C1 (relative stereo) [Example 95, 2-tert-butyl-4-[(2-furylmethyl)amino]-N-[(3R*,5S*)-5-(1-hydroxy-1-methylethyl)piperidin-3-yl]-N-isobutylpyrimidine-5-carboxamide dihydrochloride] | 97%
5 | COCCCNc1nc(C(C)(C)C)ncc1C(=O)N(CC(C)C)[C@@H]1CNC[C@H](C(=O)OC)C1 [Example 96, methyl (3R,5S)-5-[({2-tert-butyl-4-[(3-methoxypropyl)amino]pyrimidin-5-yl}carbonyl)(isobutyl)amino]piperidine-3-carboxylate dihydrochloride] | 97%
6 | CC(C)CN(C(=O)c1cnc(C(C)(C)C)nc1NCc1ccco1)[C@@H]1CNC[C@H](C(N)=O)C1 [Example 132, 2-tert-butyl-N-[(3S,5R)-5-carbamoylpiperidin-3-yl]-4-[(furan-2-ylmethyl)amino]-N-(2-methylpropyl)pyrimidine-5-carboxamide dihydrochloride] | 98%
7 | CNCC1CCN(C(=O)c2cnc(C(C)(C)C)nc2NCc2ccco2)CC1 [Example 59, 2-tert-butyl-N-(2-furylmethyl)-5-({4-[(methylamino)methyl]piperidin-1-yl}carbonyl)pyrimidin-4-amine dihydrochloride] | 86%
8 | CC(C)CN(C(=O)c1cnc(C(C)(C)C)nc1NCc1ccco1)[C@@H]1CNC[C@H](C(=O)N2CCC(C)(O)CC2)C1 (relative stereo) [Example 94, 2-tert-butyl-4-[(2-furylmethyl)amino]-N-{(3R*,5S*)-5-[(4-hydroxy-4-methylpiperidin-1-yl)carbonyl]piperidin-3-yl}-N-isobutylpyrimidine-5-carboxamide dihydrochloride] | 97%
9 | CC(C)CN(C(=O)c1cnc(C(C)(C)C)nc1NCc1ncco1)[C@@H]1CNC[C@H](C(=O)N2CCOCC2)C1 [Example 109, 2-tert-butyl-N-(2-methylpropyl)-N-[(3S,5R)-5-(morpholin-4-ylcarbonyl)piperidin-3-yl]-4-[(1,3-oxazol-2-ylmethyl)amino]pyrimidine-5-carboxamide sulfate] | 98%
10 | CNCC1CCN(C(=O)c2cnc(C(C)C)nc2NCc2ccco2)CC1 [Example 63, N-(2-furylmethyl)-2-isopropyl-5-({4-[(methylamino)methyl]piperidin-1-yl}carbonyl)pyrimidin-4-amine] | 54%
11 | CC(C)(C)c1ncc(C(=O)N2CCC(CN)CC2)c(NCc2ccco2)n1 [Example 58, 5-{[4-(aminomethyl)piperidin-1-yl]carbonyl}-2-tert-butyl-N-(2-furylmethyl)pyrimidin-4-amine dihydrochloride] | 82%
12 | CCC1CCCCN1C(=O)c1cnc(C(C)(C)C)nc1NCc1ccco1 (centres unmarked) [Example 21, 2-tert-butyl-5-[(2-ethylpiperidin-1-yl)carbonyl]-N-(2-furylmethyl)pyrimidin-4-amine] | 58%
13 | COC(=O)[C@H]1CNC[C@@H](N(CC(C)C)C(=O)c2cnc(C(C)(C)C)nc2NCCCSC)C1 (relative stereo) [Example 98, methyl (3R*,5S*)-5-[[(2-tert-butyl-4-{[3-(methylthio)propyl]amino}pyrimidin-5-yl)carbonyl](isobutyl)amino]piperidine-3-carboxylate] | 97%

same assay, conditions: pH 7.4, 1 μM test compound, pH 7.4, 37° C., 30 min, read-out: human renin inhibitory activity: inhibitory activity (%) at 1 μM

Row | SMILES | inhibition at 1 µM
14 | COCCCNc1nc(C(C)(C)C)ncc1C(=O)N(CC(C)C)[C@@H]1CNC[C@H](C(=O)N2CCOCC2)C1 [Example 97, 2-tert-butyl-4-[(3-methoxypropyl)amino]-N-(2-methylpropyl)-N-[(3S,5R)-5-(morpholin-4-ylcarbonyl)piperidin-3-yl]pyrimidine-5-carboxamide dihydrochloride] | 97%
